Source: ChEMBL document CHEMBL4043251, “Synthesis of conjugates between oxazolidinone antibiotics and a pyochelin analogue” (Bioorg Med Chem Lett, 2017)
The source made the active and inactive calls. The calls are words filed in the database; no cut-off is given here.

Assays:
[1] = test system: Pseudomonas aeruginosa; assay: Antibacterial activity against Pseudomonas aeruginosa PAO1 by disc diffusion method; type: functional
[2] = Solubility of the compound in physiological medium; type: physicochemical
[3] = Solubility of the compound in aqueous medium; type: physicochemical; details: buffer

| solubility [2] | solubility [3] | Structure (SMILES) | Activity [1] |
| --- | --- | --- | --- |
| Insoluble | Insoluble | CC(=O)NC[C@H]1CN(c2ccc(N3CCN(C(=O)OCCOCCOCC(=O)NCCCN4C([C@H]5CSC(c6ccccc6O)=N5)SC[C@H]4C(=O)O)CC3)c(F)c2)C(=O)O1 (stereo partly drawn) | inactive |
| Insoluble |  | CC(=O)NC[C@H]1CN(c2ccc(N3CCN(C(=O)CCC(=O)NCCCN4C([C@H]5CSC(c6ccccc6O)=N5)SC[C@H]4C(=O)O)CC3)c(F)c2)C(=O)O1 (stereo partly drawn) | inactive |
| Insoluble | Insoluble | CC(=O)NC[C@H]1CN(c2ccc(N3CCN(C(=O)CNC(=O)OCCOCCOCC(=O)NCCCN4C([C@H]5CSC(c6ccccc6O)=N5)SC[C@H]4C(=O)O)CC3)c(F)c2)C(=O)O1 (stereo partly drawn) | inactive |
